Assay results taken from PubChem BioAssay AID256 (DTP/NCI, 2004).
Where “and” joins values, the source holds several entries; their conditions need not be identical. Equal values may be shown once. Toxic doses and inconclusive results are not listed. How the source made its calls: active means survival T/C of 150% or more; inactive means T/C below 125% in these data.

Test system: CD2F1 mice, L1210 leukemia ip, survival T/C
Test: NCI In Vivo Anticancer Drug Screen. Data for tumor model L1210 Leukemia (intraperitoneal) in CD2F1 (CDF1) mice
Conditions: higher = longer survival
How it was run: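 Transplantable tumor in mice; compound-treated vs vehicle-treated groups. Read-out = treated/control ratio of the measured endpoint.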

[1] = endpoint: mean survival time, dose: 12.5 mg/kg/injection, schedule: Q01DX009 (ip), vehicle: saline with Tween-80
[2] = endpoint: mean survival time, dose: 25.0 mg/kg/injection, schedule: Q01DX009 (ip), vehicle: saline with Tween-80
[3] = endpoint: mean survival time, dose: 50.0 mg/kg/injection, schedule: Q01DX009 (ip), vehicle: saline with Tween-80
[4] = endpoint: mean survival time, dose: 100.0 mg/kg/injection, schedule: Q01DX009 (ip), vehicle: saline with Tween-80
[5] = endpoint: mean survival time, dose: 100.0 mg/kg/injection, schedule: Q04DX003 (ip), vehicle: saline with Tween-80
[6] = endpoint: mean survival time, dose: 50.0 mg/kg/injection, schedule: Q01DX009 (ip), vehicle: saline
[7] = endpoint: mean survival time, dose: 100.0 mg/kg/injection, schedule: Q01DX009 (ip), vehicle: saline
[8] = endpoint: mean survival time, dose: 200.0 mg/kg/injection, schedule: Q04DX003 (ip), vehicle: saline with Tween-80
[9] = endpoint: mean survival time, dose: 400.0 mg/kg/injection, schedule: Q04DX003 (ip), vehicle: saline with Tween-80

Measured: T/C

COC(=O)C1C2CC(O)C(C2)C1C(=O)OC (stereo not drawn)
inactive: [1] 97 % of control | [2] 101 % of control | [3] 104 % of control

CC1=C(CCC(=O)O)C(=O)C(CCC(=O)O)C(C)(C)C1 (stereo not drawn)
inactive: endpoint: mean survival time, dose: 100.0 mg/kg/injection, schedule: Q04DX002 (ip), vehicle: saline with Tween-80 96 % of control | endpoint: mean survival time, dose: 200.0 mg/kg/injection, schedule: Q04DX002 (ip), vehicle: saline with Tween-80 100 % of control | endpoint: mean survival time, dose: 400.0 mg/kg/injection, schedule: Q04DX002 (ip), vehicle: saline with Tween-80 100 % of control

COc1cc(OC)c(NC(=O)Nc2cccc(SC)c2)cc1Cl
inactive: [3] 92 % of control | [4] 88 % of control

CC12CCC(=O)C=C1CCC1C2C(=O)CC2(C)C1CCC2(O)C(=O)Cn1ccc(=O)[nH]c1=O (stereo not drawn)
inactive: endpoint: mean survival time, dose: 12.5 mg/kg/injection, schedule: Q04DX003 (ip), vehicle: Klucel (hydroxypropylcellulose) (HPC) 91 % of control | endpoint: mean survival time, dose: 25.0 mg/kg/injection, schedule: Q04DX003 (ip), vehicle: Klucel (hydroxypropylcellulose) (HPC) 101 % of control | endpoint: mean survival time, dose: 50.0 mg/kg/injection, schedule: Q04DX003 (ip), vehicle: Klucel (hydroxypropylcellulose) (HPC) 98 % of control | endpoint: mean survival time, dose: 100.0 mg/kg/injection, schedule: Q04DX003 (ip), vehicle: Klucel (hydroxypropylcellulose) (HPC) 96 % of control | endpoint: mean survival time, dose: 200.0 mg/kg/injection, schedule: Q04DX003 (ip), vehicle: Klucel (hydroxypropylcellulose) (HPC) 98 % of control

c1ccc(C(c2ccccc2)[P+](c2ccccc2)(c2ccccc2)c2ccccc2)cc1
inactive: endpoint: mean survival time, dose: 375.0 micrograms/kg/injection, schedule: Q01DX001 (ip), vehicle: gum acacia 92 % of control | endpoint: mean survival time, dose: 375.0 micrograms/kg/injection, schedule: Q01DX009 (ip), vehicle: gum acacia 106 % of control | endpoint: mean survival time, dose: 375.0 micrograms/kg/injection, schedule: Q04DX003 (ip), vehicle: gum acacia 95 % of control | endpoint: mean survival time, dose: 750.0 micrograms/kg/injection, schedule: Q01DX001 (ip), vehicle: gum acacia 103 % of control | endpoint: mean survival time, dose: 750.0 micrograms/kg/injection, schedule: Q01DX009 (ip), vehicle: gum acacia 101 % of control | endpoint: mean survival time, dose: 750.0 micrograms/kg/injection, schedule: Q04DX003 (ip), vehicle: gum acacia 101 % of control | endpoint: mean survival time, dose: 1500.0 micrograms/kg/injection, schedule: Q01DX001 (ip), vehicle: gum acacia 101 % of control | endpoint: mean survival time, dose: 1500.0 micrograms/kg/injection, schedule: Q01DX009 (ip), vehicle: gum acacia 108 % of control | endpoint: mean survival time, dose: 1500.0 micrograms/kg/injection, schedule: Q04DX003 (ip), vehicle: gum acacia 106 % of control | endpoint: mean survival time, dose: 3000.0 micrograms/kg/injection, schedule: Q01DX001 (ip), vehicle: gum acacia 98 % of control | endpoint: mean survival time, dose: 3000.0 micrograms/kg/injection, schedule: Q01DX009 (ip), vehicle: gum acacia 112 % of control | endpoint: mean survival time, dose: 3000.0 micrograms/kg/injection, schedule: Q04DX003 (ip), vehicle: gum acacia 108 % of control | endpoint: mean survival time, dose: 6000.0 micrograms/kg/injection, schedule: Q01DX001 (ip), vehicle: gum acacia 112 % of control | endpoint: mean survival time, dose: 6000.0 micrograms/kg/injection, schedule: Q01DX009 (ip), vehicle: gum acacia 92 % of control | endpoint: mean survival time, dose: 6000.0 micrograms/kg/injection, schedule: Q04DX003 (ip), vehicle: gum acacia 114 % of control

CCOS(=O)(=O)c1ccc(Cl)c([N+](=O)[O-])c1
inactive: [1] 100 % of control | [2] 105 % of control | [3] 94 % of control and 100 % of control | [5] 103 % of control

COC1C(O)C(CO)OC1n1cc(F)c(=O)[nH]c1=O (stereo not drawn)
inactive: [6] 104 % of control | [7] 100 % of control | endpoint: mean survival time, dose: 200.0 mg/kg/injection, schedule: Q01DX009 (ip), vehicle: saline 115 % of control

Cc1ccc(NS(=O)(=O)c2cccc([N+](=O)[O-])c2)cc1Cl
inactive: [5] 92 % of control | [8] 97 % of control | [9] 92 % of control

O=c1oc(/C=C/c2ccccc2)nc2cc(Cl)ccc12
inactive: [5] 94 % of control | [8] 92 % of control | [9] 97 % of control

O=C(O)CCc1cc([N+](=O)[O-])c(O)c([N+](=O)[O-])c1
inactive: [4] 94 % of control | endpoint: mean survival time, dose: 200.0 mg/kg/injection, schedule: Q01DX009 (ip), vehicle: saline with Tween-80 89 % of control

CCOP(=O)(OCC)C1=C(P(=O)(OCC)OCC)C(F)(F)C1(F)F
inactive: endpoint: mean survival time, dose: 9.5 mg/kg/injection, schedule: Q01DX001 (ip), vehicle: other 97 % of control | endpoint: mean survival time, dose: 19.0 mg/kg/injection, schedule: Q01DX001 (ip), vehicle: other 97 % of control | endpoint: mean survival time, dose: 38.0 mg/kg/injection, schedule: Q01DX001 (ip), vehicle: other 91 % of control

CCCCC(CC)CNCCOC(=O)c1ccc([N+](=O)[O-])cc1 (stereo not drawn)
inactive: endpoint: mean survival time, dose: 75.0 mg/kg/injection, schedule: Q01DX001 (ip), vehicle: saline 97 % of control | endpoint: mean survival time, dose: 150.0 mg/kg/injection, schedule: Q01DX001 (ip), vehicle: saline 100 % of control | endpoint: mean survival time, dose: 300.0 mg/kg/injection, schedule: Q01DX001 (ip), vehicle: saline 102 % of control

Cc1ccc(CSCc2ccc(C)cc2)cc1
inactive: endpoint: mean survival time, dose: 100.0 mg/kg/injection, schedule: Q04DX003 (ip), vehicle: other 100 % of control | endpoint: mean survival time, dose: 200.0 mg/kg/injection, schedule: Q04DX003 (ip), vehicle: other 107 % of control | endpoint: mean survival time, dose: 400.0 mg/kg/injection, schedule: Q04DX003 (ip), vehicle: other 97 % of control

CCOc1ccccc1N1C(=O)CSC1=S
inactive: endpoint: mean survival time, dose: 25.0 mg/kg/injection, schedule: Q04DX002 (ip), vehicle: other 93 % of control | endpoint: mean survival time, dose: 50.0 mg/kg/injection, schedule: Q04DX002 (ip), vehicle: other 93 % of control | endpoint: mean survival time, dose: 100.0 mg/kg/injection, schedule: Q04DX002 (ip), vehicle: other 89 % of control | endpoint: mean survival time, dose: 200.0 mg/kg/injection, schedule: Q04DX002 (ip), vehicle: other 101 % of control

COc1ccc(/C=C(\C)[N+](=O)[O-])cc1OC
inactive: endpoint: mean survival time, dose: 12.5 mg/kg/injection, schedule: Q01DX009 (ip), vehicle: water 105 % of control | endpoint: mean survival time, dose: 25.0 mg/kg/injection, schedule: Q01DX009 (ip), vehicle: water 93 % of control | endpoint: mean survival time, dose: 50.0 mg/kg/injection, schedule: Q01DX009 (ip), vehicle: water 93 % of control

CCCC1CCC(=C2C(=O)CCC2=O)O1 (stereo not drawn)
inactive: endpoint: median survival time, dose: 25.0 mg/kg/injection, schedule: Q01DX009 (ip), vehicle: saline with Tween-80 98 % of control | endpoint: median survival time, dose: 50.0 mg/kg/injection, schedule: Q01DX009 (ip), vehicle: saline with Tween-80 100 % of control | endpoint: median survival time, dose: 100.0 mg/kg/injection, schedule: Q01DX009 (ip), vehicle: saline with Tween-80 100 % of control | endpoint: median survival time, dose: 200.0 mg/kg/injection, schedule: Q01DX009 (ip), vehicle: saline with Tween-80 102 % of control

CCCCCCCCCCCCCCNC(=O)C[N+](C)(C)Cc1ccccc1
inactive: endpoint: mean survival time, dose: 0.25 mg/kg/injection, schedule: Q01DX009 (ip), vehicle: saline sonified 101 % of control | endpoint: mean survival time, dose: 0.5 mg/kg/injection, schedule: Q01DX009 (ip), vehicle: saline sonified 95 % of control | endpoint: mean survival time, dose: 1.0 mg/kg/injection, schedule: Q01DX009 (ip), vehicle: saline sonified 95 % of control | endpoint: mean survival time, dose: 5.0 mg/kg/injection, schedule: Q04DX003 (ip), vehicle: saline 96 % of control | endpoint: mean survival time, dose: 10.0 mg/kg/injection, schedule: Q04DX003 (ip), vehicle: saline 96 % of control

CCCCCCCCCCCCNC=O
inactive: endpoint: mean survival time, dose: 25.0 mg/kg/injection, schedule: Q01DX009 (ip), vehicle: saline 100 % of control | [6] 103 % of control | [7] 106 % of control

CCCCCCOC(=O)C(O)c1ccccc1 (stereo not drawn)
inactive: [5] 103 % of control | [8] 103 % of control | [9] 97 % of control

CCOC(=O)N(Cl)Cl
inactive: endpoint: mean survival time, dose: 12.5 mg/kg/injection, schedule: Q04DX003 (ip), vehicle: saline 102 % of control

O=C(O)c1ccccc1S(=O)(=O)c1ccccc1
inactive: [5] 93 % of control | [8] 88 % of control | [9] 95 % of control
